The results in this text go back to patent US12692254B2, “Benzimidazole inhibitors of PAD enzymes” (BRISTOL-MYERS SQUIBB COMPANY, priority 2018, dated 2026).

For this experiment, the target named is human PAD4 (hPAD4) (Homo sapiens, UniProt Q9UM07). In words: RFMS human PAD4 functional assay (rapid-fire mass spectrum). Conditions: 5 nM hPAD4 enzyme, 250 μM BAEE, 50 μM Calcium; 30 min preincubation, 90 min reaction at 37° C. Format: biochemical. In a few lines: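 PAD4 (10 nM) preincubated 30 min with compound (top final 50 μM), then BAEE substrate added in pH 7.5 HEPES buffer with DTT, 50 μM calcium, TPEN; 90 min at 37° C. After TCA quench, citrulline derivatized with phenyl glyoxal (4 mM final, 30 min, 37° C) and quantified by RapidFire MS against internal standard.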
Chain of human PAD4 (hPAD4) (Q9UM07 whole entry): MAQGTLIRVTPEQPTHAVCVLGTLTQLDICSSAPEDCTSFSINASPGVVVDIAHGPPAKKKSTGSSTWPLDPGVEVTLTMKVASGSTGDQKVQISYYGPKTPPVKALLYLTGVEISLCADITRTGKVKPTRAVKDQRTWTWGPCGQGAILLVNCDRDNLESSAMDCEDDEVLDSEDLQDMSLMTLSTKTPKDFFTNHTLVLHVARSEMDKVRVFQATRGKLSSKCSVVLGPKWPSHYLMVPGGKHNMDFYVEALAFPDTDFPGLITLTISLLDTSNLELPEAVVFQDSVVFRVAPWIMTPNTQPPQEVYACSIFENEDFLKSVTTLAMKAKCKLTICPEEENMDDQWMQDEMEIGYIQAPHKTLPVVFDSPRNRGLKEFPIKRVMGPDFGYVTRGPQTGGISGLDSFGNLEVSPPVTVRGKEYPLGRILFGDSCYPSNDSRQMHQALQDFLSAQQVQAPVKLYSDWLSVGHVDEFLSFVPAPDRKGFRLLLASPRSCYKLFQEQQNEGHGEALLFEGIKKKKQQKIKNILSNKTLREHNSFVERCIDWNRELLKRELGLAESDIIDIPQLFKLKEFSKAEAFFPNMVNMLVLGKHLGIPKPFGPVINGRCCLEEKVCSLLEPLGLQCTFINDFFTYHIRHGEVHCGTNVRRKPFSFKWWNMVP

For `N[C@@H]1[C@@H]2CC[C@H]1N(C(=O)c1ccc3c(c1)nc(-c1cc4ccccc4n1CC1CC1)n3CC1CN(C(=O)c3ccncc3)C1)C2` [Example 175, (1R,4R,7R)-2-{2-[1-(cyclopropylmethyl)-1H-indol-2-yl]-1-{[1-(pyridine-4-carbonyl)azetidin-3-yl]methyl}-1H-1,3-benzodiazole-5-carbonyl}-2-azabicyclo[2.2.1]heptan-7-amine], the IC50 (as a rule, the midpoint of a concentration-inhibition curve) amounted to 51 nM. As for `COc1cc(C(=O)N2CCC[C@@H](N)C2)cc2nc(-c3cc4cccnc4n3CC3CC3)n(C3CNC3)c12` [Example 310, (3R)-1-[1-(azetidin-3-yl)-2-[1-(cyclopropylmethvl)-1H-pyrrolo[2,3-b]pyridin-2-yl]-7-methoxy-1H-1,3-benzodiazole-5-carbonyl]piperidin-3-amine], the IC50 turned out to be 1900 nM. Consider `COc1cc(C(=O)N2CC3CCC2[C@@H]3N)cc2nc(-c3cc4ccccc4n3CC3CC3)n(CC3CN(C(=O)C4CCC(F)(F)C4)C3)c12` (stereo partly drawn) [Example 139, (1R,4R,7R)-2-{2-[1-(cyclopropylmethyl)-1H-indol-2-yl]-1-{[1-(3,3-difluorocyclopentanecarbonyl)aze-tidin-3-yl]methyl}-7-methoxy-1H-1,3-benzodiazole-5-carbonyl}-2-azabicyclo[2.2.1]heptan-7-amine], for which the IC50 is 12 nM. On to `COc1cc(C(=O)N2C[C@H](N)C[C@@H](F)C2)cc2nc(-c3cc4cccnc4n3CC3CC3)n(Cc3cnn(C)c3C)c12` [Example 504, (3R,5R)-1-{2-[1-(cyclopropylmethyl)-1H-pyrrolo[2,3-b]pyridin-2-yl]-l-[(1,5-dimethyl-1H-pyrazol-4-yl)methyl]-7-methoxy-1H-1,3-benzodiazole-5-carbonyl}-5-fluoropiperidin-3-amine], for which the IC50 is 158 nM.

On to `COc1cc(C(=O)N2C[C@H](N)C[C@@H](F)C2)cc2nc(-c3cc4ccccc4n3CC3CC3)n(CCC3CCS(=O)(=O)CC3)c12` [Example 249, ((3R,5R)-3-amino-5-fluoropiperidin-1-yl)(2-(1-(cyclopropylmethyl)-1H-indol-2-yl)-1-(2-(1,1-dioxidotetrahydro-2H-thiopyran-4-yl)ethyl)-7-methoxy-1H-benzo[d]imidazol-5-yl)methanone], for which the IC50 amounted to 35 nM. For `COc1cc(C(=O)N2C[C@H]3CC[C@@H]2[C@@H]3N)cc2nc(-c3cc4cccnc4n3CC3CC3)n(C3CN(S(=O)(=O)CC4CC4)C3)c12` [Example 331, (1R,4R,7R)-2-[1-(1-cyclopropylmethanesulfonylazetidin-3-yl)-2-[1-(cyclopropylmethyl)-1H-pyrrolo[2,3-b]pyridin-2-yl]-7-methoxy-1H-1,3-benzodiazole-5-carbonyl]-2-azabicyclo[2.2.1]heptan-7-amine], the IC50 was 190 nM. For the molecule `COc1cc(C(=O)N2C[C@H]3CC[C@@H]2[C@@H]3N)cc2nc(-c3cc4ccccc4n3CC3CC3)n(CC3CN(C(=O)c4nnn(C)n4)C3)c12` [Example 142, (1R,4R,7R)-2-{2-[1-(cyclopropylmethyl)-1H-indol-2-yl]-7-methoxy-1-{[1-(2-methyl-2H-1,2,3,4-tetrazole-5-carbonyl)azetidin-3-yl]methyl}-1H-1,3-benzodiazole-5-carbonyl}-2-azabicyclo[2.2.1]heptan-7-amine], the IC50 amounted to 14 nM. The value for `COc1cc(C(=O)N2C[C@H]3CC[C@@H]2[C@@H]3N)cc2nc(-c3cc4cccnc4n3CC3CC3)n(CC3CN(C(=O)CC4CC4)C3)c12` [Example 115, 1-[3-({5-[(1R,4R,7R)-7-amino-2-azabicyclo[2.2.1]heptane-2-carbonyl]-2-[1-(cyclopropylmethyl)-1H-pyrrolo[2,3-b]pyridin-2-yl]-7-methoxy-1H-1,3-benzodiazol-1-yl}methyl)azetidin-1-yl]-2-cyclopropylethan-1-one] was 59 nM; that for `COc1cc(C(=O)N2C[C@H]3CC[C@@H]2[C@@H]3N)cc2nc(-c3cc4cccnc4n3CC3CC3)n(C3CN(C(=O)c4cnc(NCC(C)(C)O)nc4)C3)c12` [Example 185, 1-{[5-(3-{5-[(1R,4R,7R)-7-amino-2-azabicyclo[2.2.1]heptane-2-carbonyl]-2-[1-(cyclopropylmethyl)-1H-pyrrolo[2,3-b]pyridin-2-yl]-7-methoxy-1H-1,3-benzodiazol-1-yl}azetidine-1-carbonyl)pyrimidin-2-yl]amino}-2-methylpropan-2-ol] was 316 nM; that for `COc1cc(C(=O)N2CC3CCC2[C@@H]3N)cc2nc(-c3cc4cccnc4n3CC3CC3)n(C3CCN(c4ccnc(C#N)n4)CC3)c12` (stereo partly drawn) [Example 237, 4-(4-{5-[(1R,4R,7R)-7-amino-2-azabicyclo[2.2.1]heptane-2-carbonyl]-2-[1-(cyclopropylmethyl)-1H-pyrrolo[2,3-b]pyridin-2-yl]-7-methoxy-1H-1,3-benzodiazol-1-yl}piperidin-l-yl)pyrimidine-2-carbonitrile] was 540 nM.

For the molecule `N[C@@H]1C2CCC1N(C(=O)c1cc(F)c3c(c1)nc(-c1cc4cccnc4n1CC1CC1)n3CC1CN(C(=O)c3ccncc3)C1)C2` (stereo partly drawn) [Example 466, (7R)-2-{2-[1-(cyclopropylmethyl)-1H-pyrrolo[2,3-b]pyridin-2-yl]-7-fluoro-1-{[1-(pyridine-4-carbonyl)azetidin-3-yl]methyl}-1H-1,3-benzodiazole-5-carbonyl}-2-azabicyclo[2.2.1]heptan-7-amine], the IC50 was found to be 84 nM. The value for `COc1cc(C(=O)N2C[C@H]3CC[C@@H]2[C@@H]3N)cc2nc(-c3cc4cccnc4n3CC3CC3)n(CC3CN(c4ncc(C#N)cc4Br)C3)c12` [Example 29, 6-[3-({5-[(1R,4R,7R)-7-amino-2-azabicyclo[2.2.1]heptane-2-carbonyl]-2-[1-(cyclopropylmethyl)-1H-pyrrolo[2,3-b]pyridin-2-yl]-7-methoxy-1H-1,3-benzodiazol-1-yl}methyl)azetidin-1-yl]-5-bromopyridine-3-carbonitrile] was 78 nM; that for `COc1cc(C(=O)N2C[C@H]3CC[C@@H]2[C@@H]3N)cc2nc(-c3cc4cccnc4n3CC3CC3)n(CC3CN(c4ccnc(S(C)(=O)=O)n4)C3)c12` [Example 13, (1R,4R,7R)-2-{2-[1-(cyclopropylmethyl)-1H-pyrrolo[2,3-b]pyridin-2-yl]-1-{[1-(2-methanesulfonylpyrimidin-4-yl)azetidin-3-yl]methyl}-7-methoxy-1H-1,3-benzodiazole-5-carbonyl}-2-azabicyclo[2.2.1]heptan-7-amine] was 38 nM.

`COc1cc(C(=O)N2C[C@H]3CC[C@@H]2[C@@H]3N)cc2nc(-c3cc4ccccc4n3CC3CC3)n(CC3CCC(=O)N3)c12` (stereo partly drawn) [Example 275, 5-({5-[(1R,4R,7R)-7-amino-2-azabicyclo[2.2.1]heptane-2-carbonyl]-2-[1-(cyclopropylmethyl)-1H-indol-2-yl]-7-methoxy-1H-1,3-benzodiazol-1-yl}methyl)pyrrolidin-2-one]: the IC50 is 298 nM. As to `COc1cc(C(=O)N2CC3CCC2[C@@H]3N)cc2nc(-c3cc4ccccc4n3CC(F)F)n(Cc3cnn(C)c3)c12` (stereo partly drawn) [Example 502, (7R)-2-{2-[1-(2,2-difluoroethyl)-1H-indol-2-yl]-7-methoxy-1-[(1-methyl-1H-pyrazol-4-yl)methyl]-1H-1,3-benzodiazole-5-carbonyl}-2-azabicyclo[2.2.1]heptan-7-amine], the IC50 is 146 nM.

Consider `COc1cc(C(=O)N2C[C@H]3CC[C@@H]2[C@@H]3N)cc2nc(-c3cc4ccccc4n3CC3CC3)n(CC3CN(C(=O)c4ccccc4F)C3)c12` [Example 164, (1R,4R,7R)-2-{2-[1-(cyclopropylmethyl)-1H-indol-2-yl]-1-{[1-(2-fluorobenzoyl)azetidin-3-yl]methyl}-7-methoxy-1H-1,3-benzodiazole-5-carbonyl}-2-azabicyclo[2.2.1]heptan-7-amine], for which the IC50 is 26 nM. For the molecule `N#Cc1ccc(C(=O)N2CC(Cn3c(-c4cc5ccccc5n4CC4CC4)nc4cc(C(=O)N5C[C@H]6CC[C@@H]5[C@@H]6N)cc(F)c43)C2)cc1` [Example 92, 4-(3-((5-((1R,4R,7R)-7-amino-2-azabicyclo[2.2.1]heptane-2-carbonyl)-2-(1-(cyclopropylmethyl)-1H-indol-2-yl)-7-fluoro-1H-benzo[d]imidazol-1-yl)methyl)azetidine-1-carbonyl)benzonitrile], the IC50 stood at 12 nM. With `COc1cc(C(=O)N2CC3CCC2[C@@H]3N)cc2nc(-c3cc4cccnc4n3CC3CC3)n(CC3CN(C(=O)c4cccc(F)c4F)C3)c12` (stereo partly drawn) [Example 423, (7R)-2-{2-[1-(cyclopropylmethyl)-1H-pyrrolo[2,3-b]pyridin-2-yl]-1-{[1-(2,3-difluorobenzoyl)azetidin-3-yl]methyl}-7-methoxy-1H-1,3-benzodiazole-5-carbonyl}-2-azabicyclo[2.2.1]heptan-7-amine], the IC50 is 23 nM.

Regarding `COc1cc(C(=O)N2C[C@H]3CC[C@@H]2[C@@H]3N)cc2nc(-c3cc4ccccc4n3CC3CC3)n(Cc3ccccn3)c12` [Example 280, (1R,4R,7R)-2-{2-[1-(cyclopropylmethyl)-1H-indol-2-yl]-7-methoxy-1-[(pyridin-2-yl)methyl]-1H-1,3-benzodiazole-5-carbonyl}-2-azabicyclo[2.2.1]heptan-7-amine], the IC50 stood at 555 nM. Consider `COc1cc(C(=O)N2CC3CCC2[C@@H]3N)cc2nc(-c3cc4ccccc4n3CC3CC3)n(Cc3cnn(-c4ccc(C)cn4)c3)c12` (stereo partly drawn) [Example 404, (7R)-2-{2-[1-(cyclopropylmethyl)-1H-indol-2-yl]-7-methoxy-1-{[1-(5-methylpyridin-2-yl)-1H-pyrazol-4-yl]methyl)-1H-1,3-benzodiazole-5-carbonyl}-2-azabicyclo[2.2.1]heptan-7-amine], for which the IC50 came to 66 nM. To `COc1cc(C(=O)N2C[C@H]3CC[C@@H]2[C@@H]3N)cc2nc(-c3cc4cccnc4n3CC3CC3)n(CC3CN(c4ccnc(C)c4)C3)c12` [Example 51, (1R,4R,7R)-2-{2-[1-(cyclopropylmethyl)-1H-pyrrolo[2,3-b]pyridin-2-yl]-7-methoxy-1-{[1-(2-methylpyridin-4-yl)azetidin-3-yl]methyl}-1H-1,3-benzodiazole-5-carbonyl}-2-azabicyclo[2.2.1]heptan-7-amine] belongs 152 nM.
